From patent US10821079B2, “PKC activators and combinations thereof” (Cognitive Research Enterprises, Inc., priority 2011, dated 2020)

Tests used:
[1] = cited from earlier work
[2] = tested on: PKC-α; assay: PKC-α translocation to membrane in SH-SY5Y cells (Western blot); type: cell-based, human; settings: 0.27 nM, 0-60 min
Experimental: Cells were harvested in homogenizing buffer containing 10 mM Tris-Cl (pH 7.4), 1 mM PMSF (phenylmethylsulfonyl fluoride), 1 mM EGTA, 1 mM EDTA, 50 mM NaF, and 20 μM leupeptin and were lysed by sonication. The homogenate was centrifuged at 100,000×g for 15 min at 4° C. to obtain the cytosolic fraction (supernatant) and membrane (pellet). The pellet was resuspended in the homogenizing buffer by sonication. Protein concentration was measured using the Coomassie Plus (Bradford) Protein Assay kit (Pierce, USA). Following quantification, 20 μg of protein from each sample was subjected to SDS-PAGE analysis in 4-20% gradient Tris-Glycine gel (Invitrogen, USA). The separated protein was then transferred to nitrocellulose membrane. The membrane was blocked with BSA at room temperature for 15 min and was incubated with primary antibody over night at 4° C. […] Western Blot was imaged in the ImageQuant RT-ECL (GE Life Sciences, Piscataway, N.J.) and densitometric quantification was performed using the IMAL software (Blanchette Rockefeller Neurosciences Institute, Morgantown, W. Va.). […]
Equal amounts of proteins were loaded in each lane (20 μg) for both the cytosol and membrane fractions. Activation of PKC was calculated as the percentage of total PKC in the membrane (membrane/cytosol+membrane).

[3] = tested on: rat hippocampal primary neurons; assay: Synaptic marker immunofluorescence in rat hippocampal primary neurons; type: cell-based; settings: 50 nM ASPD alone (ASPD) or with 100 nM DCPLA-ME, 20 hr
Experimental: Cells were grown in two chambered slides (Nunc, USA) at low density. For immunofluorescence staining, the cells were washed with PBS (pH 7.4) and fixed with 4% paraformaldehyde for 4 min. Following fixation, the cells were blocked and permeabilized with 5% serum and 0.3% Triton X 100 in 1×PBS for 30 min. The cells were washed three times with 1×PBS and incubated with primary antibodies for 1 hr at 1:100 dilution. The incubation slides were then washed again three times in 1×PBS and were incubated with the FITC anti-rabbit IgG and Rhodamine anti-mouse IgG for 1 hr at 1:400 dilution. The cells were further washed and treated with DAPI (4′,6-diamidino-2′-phenylindole, dihydrochloride) (Thermo Scientific, USA) to stain the nucleus. Finally, the slides were washed and mounted in Pro Long Gold antifade mounting solution (Invitrogen, USA) and were viewed under the LSM 710 Meta confocal microscope (Zeiss) at 350 nm, 490 nm, and 540 nm excitation and 470 nm, 525 nm, and 625 nm emission for DAPI, FITC, and Rhodamine respectively. Six individual fields at 63× oil lens magnification were analyzed for the mean fluorescence intensity (MFI) in each channel. The co-localization correlation generated by the ZEN software (Zeiss).
To estimate the synaptic damage caused by the ASPDs on primary hippocampal neurons, the expression of synaptophysin (a presynaptic marker) and PSD-95 (a postsynaptic marker) was measured by immunofluorescence staining. […] Following a 20 hr incubation period, the cells were stained for nucleus, PSD-95, and synaptophysin. Expression levels were calculated as the change of percentage in mean fluorescence intensity compared to untreated cells.
Primary neurons, treated and untreated, were immunostained for MAP-2, synaptophysin, and PSD-95 to determine the synaptic integrity. […] Following a 20 hr incubation period, the cells were stained for MAP-2, PSD-95, and synaptophysin as described above.

[4] = Water maze spatial learning and memory task, visible platform test; type: in vivo, Wistar rats
Experimental: Water maze spatial learning and memory task (2 training trials/day for 4 days) was used to evaluate effects of oral DCPLA-ME on learning and memory in rats. A visible platform test was conducted after the end of the experiments to evaluate whether the treatment might result in an altered sensorimotor activity and escape motivation.
Male adult Wistar rats (200-250 g) were housed in a temperature-controlled (20-24° C.) room for a week, allowed free access to food and water, and kept on a 12-h light/dark cycle. Rats were anesthetized with sodium pentobarbital (60 mg/kg i.p) and placed in a stereotactic apparatus (Kopf Instruments, Tujunga, Calif.). The core temperature of rats was monitored and kept constant (38.0±0.5° C.) with warming light and pad. Two stainless steel guide cannulas were placed with the tips positioned at the coordinates (anterior-posterior, 0.5 mm; lateral, 1.5 mm; horizontal, 3.2 mm), under aseptic conditions. At the end of surgery and under appropriate anesthesia, rats received (s.c.) banamine (1 mg/kg) and ketoprofen (5 mg/kg) in lactate/Ringer's solution. A 7-day recovery period was allowed before any further experimentation.
On the first day of experiments, all rats were randomly assigned to different groups and swam for 2 min in a 1.5-(diameter)×0.6-m (depth) pool (22±1° C.). On the following day, rats were trained in a two-trial per day task for four consecutive days. Each training trial lasted for up to 2 min, during which rats learned to escape from water by finding a hidden platform that was placed at a fixed location and submerged 1 cm below the water surface. The navigation of the rats was tracked by a video camera. The escape latency and the route of rats' swimming across the pool to the platform were recorded. The quadrant test (1 min) was performed after removing the platform, 24 hr after the last training trial.
DCPLA-ME was administered at either 5.3 or 16.0 mg/kg (intragastric, 8 doses total of 2/week with the first 6 doses before the water maze task and the seventh and eighth doses 0.5 hr after the second trial of the first and third training day).

[5] = tested on: PKC-ε; assay: PKC-ε level in primary neurons (immunofluorescence, Western Blot); type: cell-based, rat; settings: ASPD-treated primary neurons, 100 nM DCPLA-ME
Experimental: Cells were harvested in homogenizing buffer containing 10 mM Tris-Cl (pH 7.4), 1 mM PMSF (phenylmethylsulfonyl fluoride), 1 mM EGTA, 1 mM EDTA, 50 mM NaF, and 20 μM leupeptin and were lysed by sonication. The homogenate was centrifuged at 100,000×g for 15 min at 4° C. to obtain the cytosolic fraction (supernatant) and membrane (pellet). The pellet was resuspended in the homogenizing buffer by sonication. Protein concentration was measured using the Coomassie Plus (Bradford) Protein Assay kit (Pierce, USA). Following quantification, 20 μg of protein from each sample was subjected to SDS-PAGE analysis in 4-20% gradient Tris-Glycine gel (Invitrogen, USA). The separated protein was then transferred to nitrocellulose membrane. The membrane was blocked with BSA at room temperature for 15 min and was incubated with primary antibody over night at 4° C. After the incubation, it was washed three times with TBS-T (Tris Buffered saline-Tween 20) and further incubated with alkaline phosphatase conjugated secondary antibody (Jackson Immunoresearch Laboratories, USA) at 1:10,000 dilution for 45 min. The membrane was finally washed three times with TBS-T and developed using the 1-step NBT-BCIP substrate (Pierce, USA). Western Blot was imaged in the ImageQuant RT-ECL (GE Life Sciences, Piscataway, N.J.) and densitometric quantification was performed using the IMAL software (Blanchette Rockefeller Neurosciences Institute, Morgantown, W. Va.). For translocation assays, PKC activation was represented as the percentage of total protein in the membrane (membrane/cytosol+membrane).
Cells were grown in two chambered slides (Nunc, USA) at low density. For immunofluorescence staining, the cells were washed with PBS (pH 7.4) and fixed with 4% paraformaldehyde for 4 min. Following fixation, the cells were blocked and permeabilized with 5% serum and 0.3% Triton X 100 in 1×PBS for 30 min. […] Six individual fields at 63× oil lens magnification were analyzed for the mean fluorescence intensity (MFI) in each channel. […]

Structure (SMILES) | toxicity ([1]; at 20 μg/week) | dose that may be associated with muscle pain ([1]; in vivo) | PKC-α translocation over time (in words) [2] | MAP-2 expression (mean fluorescence intensity) [3] | PSD-95 expression (mean fluorescence intensity) [3] | synaptophysin expression (mean fluorescence intensity) [3] | memory retention, target quadrant ratio vs control ([4]; 5.3 mg/kg intragastric) | water maze learning, escape latency vs control ([4]; 5.3 mg/kg intragastric) | water maze learning, escape latency vs control ([4]; 16.0 mg/kg intragastric) | visible platform test, sensorimotor ability and escape motivation ([4]; oral) | PKC-ε protein level (Western Blot, in words) [5]
CCC/C=C/C=C/C(=O)O[C@H]1/C(=C/C(=O)OC)C[C@H]2C[C@H]([C@@H](C)O)OC(=O)C[C@H](O)C[C@@H]3C[C@H](OC(C)=O)C(C)(C)C(O)(C[C@@H]4C/C(=C/C(=O)OC)C[C@H](/C=C/C(C)(C)[C@]1(O)O2)O4)O3 [Bryostatin-1] | no toxicity | more than 35 μg/week | came down to baseline at 60 min | – | – | – | – | – | – | – | –
CCCCCC1CC1CC1CC1CCCCCCCC(=O)OC (centres unmarked) [DCPLA-ME, methyl 8-(2-((2-pentylcyclopropyl)methyl)cyclopropyl)octanoate] | – | – | – | 68.87±2.0% | 99.2±11.3% | 87.48±3.75% | but not between the 5.3 mg/kg dose and control groups | did not reach a significant level | improved learning performance | did not affect rats' sensorimotor ability and motivation for an escape | restored the PKC-ε protein level to normal
